# According to patent publication US20260070929A1, “METHODS AND COMPOSITIONS FOR MODULATING KRAS(G12D)” (Ranok Therapeutics (Hangzhou) Co. LTD., priority 2022, published 2026):
# Like-named read-outs stand apart in the source and are kept apart here.
# Tests used:
# [1] = tested on: AGS gastric carcinoma cells [heterozygous G12D]; assay: Cancer cell line proliferation (CellTiter-Glo), AGS; assay type: cell-based; conditions: Homo sapiens, 72 hr treatment, read-out: AGS CTG (EC50)
# Method in brief: (§1)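 EC50 values come from CellTiter-Glo viability measured after 72 hr compound treatment at 37° C./5% CO2 with 0.5% final DMSO. Plating was at 4,000 cells/well with 72 hr growth before dosing, and compounds were serially diluted 3-fold from 20 μM down to 1.02 nM.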
# [2] = tested on: ASPC1 pancreatic adenocarcinoma cells [homozygous G12D]; assay: Cancer cell line proliferation (CellTiter-Glo), ASPC1; assay type: cell-based; conditions: 72 hr treatment, read-out: ASPC-1 CTG (EC50)
# Experimental: The following cancer cell lines were employed: AGS gastric carcinoma [heterozygous G12D](ATCC, CRL-1739); A-427 lung carcinoma [heterozygous G12D](ATCC, HTB-53); ASPC1 pancreatic adenocarcinoma [homozygous G12D](ATCC, CRL-1682) and SW1990 pancreatic adenocarcinoma [homozygous G12D](ATCC CRL-2172). Cell lines were cultured essentially according to ATCC recommendations.
# AGS, A-427, ASPC1, SW1990, and GP2D cells were plated in 96-well tissue culture plates at 4,000 cells/well and incubated at 37° C./5% CO2 for 72 hr in 100 μl of media. 3-fold serial dilutions of each test compound were prepared ranging from 20 μM to 1.02 nM. Each cell line was then treated with test compounds at various concentrations with a final concentration of 0.5% DMSO/well, and then incubated at 37° C./5% CO2 for 72 hr. 100 µl of CellTiter-Glo® Reagent (Promega Corporation, Madison, WI) was added to each well and processed according manufacturer's protocol. Results were analyzed and EC50 values were calculated in GraphPad 7 software.
# [3] = tested on: A-427 lung carcinoma cells [heterozygous G12D]; assay: Cancer cell line proliferation (CellTiter-Glo), A-427; assay type: cell-based; conditions: Homo sapiens, A-427 cells, 72 hr treatment, read-out: A427 CTG (EC50)
# Method in brief: as §1
# KRAS(G12D)/SOS1 = target: T1, KRAS(G12D)/SOS1 (Homo sapiens, UniProt P01116, G12D); assay: KRAS(G12D)/SOS1 homogeneous time-resolved fluorescence (HTRF) assay; assay type: binding; conditions: absence of GTP; 4° C., 3 hr
# T1 construct: purchased Cisbio 63ADK000CB17PEH
# Method in brief: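 Disruption of the KRAS(G12D)/SOS1 pairing, in the absence of GTP, was read by time-resolved FRET after a 3 hr sealed incubation at 4 °C. Test compounds spanned 20 µM down to 1.02 nM in 3-fold steps. IC50 values correspond to half-maximal inhibition.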
# T1 sequence (P01116 1-188 isoform P01116-2 G12D): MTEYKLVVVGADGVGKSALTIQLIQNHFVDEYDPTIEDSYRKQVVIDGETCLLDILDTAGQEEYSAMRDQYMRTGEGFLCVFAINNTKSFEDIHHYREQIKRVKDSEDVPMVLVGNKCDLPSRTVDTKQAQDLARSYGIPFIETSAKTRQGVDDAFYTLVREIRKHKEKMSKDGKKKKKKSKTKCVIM
Structure (SMILES),EC50 [1] [nM],"EC50 ([2]; Homo sapiens, ASPC1, 72 h) [nM]",EC50 [3] [nM],IC50 (KRAS(G12D)/SOS1) [nM],EC50 [2] [nM]
CCNC(=O)c1nnc(-c2cc(C(C)C)c(O)cc2O)n1-c1ccc(CN2CCN([C@H]3C[C@@H](COc4nc(N5CC6CCC(C5)N6)c5cnc(-c6cccc7cccc(C)c67)c(F)c5n4)N(C)C3)CC2)cc1 [Compound 29],< 100,100 to 1000,< 100,100 to 1000,
CC(C)c1cc(-c2nnc(O)n2-c2ccc(CN3CCN([C@H]4C[C@@H](COc5nc(N6CC7CCC(C6)N7)c6cnc(-c7cccc8ccccc78)c(F)c6n5)N(C)C4)CC3)cc2)c(O)cc1O [Compound 30],100 to 1000,> 1000,100 to 1000,> 1000,
CCNC(=O)c1nnc(-c2cc(C(C)C)c(O)cc2O)n1-c1ccc(CN2CCN([C@H]3C[C@@H](COc4nc(N5CC6CCC(C5)N6)c5cnc(-c6cc(O)cc7ccccc67)c(F)c5n4)N(C)C3)CC2)cc1 [Compound 31],100 to 1000,> 1000,100 to 1000,< 100,
CC(C)c1cc(-c2nnc(O)n2-c2ccc(CN3CCC(C(=O)C4CCN([C@H]5C[C@@H](COc6nc(N7CC8CCC(C7)N8)c7cnc(-c8cc(O)cc9ccccc89)c(F)c7n6)N(C)C5)CC4)CC3)cc2)c(O)cc1O [Compound 32],100 to 1000,> 1000,100 to 1000,< 100,
CC(C)c1cc(-c2nnc(O)n2-c2ccc(CN3CCN([C@H]4C[C@@H](COc5nc(N6CC7CCC(C6)N7)c6cnc(-c7cc(O)cc8ccccc78)c(F)c6n5)N(C)C4)CC3)cc2)c(O)cc1O [Compound 33],100 to 1000,> 1000,> 1000,< 100,
CCNC(=O)c1nnc(-c2cc(C(C)C)c(O)cc2O)n1-c1ccc(CN2CCN([C@H]3C[C@@H](COc4nc(N5CC6CCC(C5)N6)c5cnc(-c6cccc7ccccc67)c(F)c5n4)N(C)C3)CC2)cc1 [Compound 34],< 100,100 to 1000,100 to 1000,> 1000,
C#Cc1cccc2cccc(-c3ncc4c(N5CC6CCC(C5)N6)nc(OC[C@@H]5C[C@H](N6CCN(Cc7ccc(-n8c(C(=O)NCC)nnc8-c8cc(C(C)C)c(O)cc8O)cc7)CC6)CN5C)nc4c3F)c12 [Compound 36],< 100,100 to 1000,100 to 1000,< 100,
Cc1cccc2cccc(-c3ncc4c(N5CC6CCC(C5)N6)nc(OC[C@@H]5C[C@H](N6CCN(Cc7ccc8c(c7)CN(C(=O)c7cc(C(C)C)c(O)cc7O)C8)CC6)CN5C)nc4c3F)c12 [Compound 37],100 to 1000,,100 to 1000,< 100,100 to 1000
CCNC(=O)c1nnc(-c2cc(C(C)C)c(O)cc2O)n1-c1ccc(CN2CCC(C(=O)N3CCN([C@H]4C[C@@H](COc5nc(N6CC7CCC(C6)N7)c6cnc(-c7cc(O)cc8ccccc78)c(F)c6n5)N(C)C4)CC3)CC2)cc1 [Compound 38],100 to 1000,100 to 1000,100 to 1000,< 100,
C#Cc1cccc2cccc(-c3ncc4c(N5CC6CCC(C5)N6)nc(OC[C@@H]5CC[C@H](CN6CCN(Cc7ccc8c(c7)CN(C(=O)c7cc(C(C)C)c(O)cc7O)C8)CC6)N5C)nc4c3F)c12 [Compound 39],100 to 1000,> 1000,100 to 1000,< 100,
CCNC(=O)c1nnc(-c2cc(C(C)C)c(O)cc2O)n1-c1ccc(CN(C)[C@@H]2CN3CCC[C@]3(COc3nc(N4CC5CCC(C4)N5)c4cnc(-c5cc(O)cc6ccccc56)c(F)c4n3)C2)cc1 [Compound 40],100 to 1000,> 1000,100 to 1000,< 100,
CCNC(=O)c1nnc(-c2cc(C(C)C)c(O)cc2O)n1-c1ccc(CN(C)[C@@H]2CN3CCC[C@@]3(COc3nc(N4CC5CCC(C4)N5)c4cnc(-c5cc(O)cc6ccccc56)c(F)c4n3)C2)cc1 [Compound 41],100 to 1000,100 to 1000,> 1000,< 100,
CC(C)c1cc(-c2nnc(O)n2-c2ccc(CN(C)[C@@H]3CN4CCC[C@]4(COc4nc(N5CC6CCC(C5)N6)c5cnc(-c6cc(O)cc7ccccc67)c(F)c5n4)C3)cc2)c(O)cc1O [Compound 42],> 1000,> 1000,> 1000,< 100,
